Measurements: article PMC6361841, “Repurposing of Drugs as Novel Influenza Inhibitors From Clinical Gene Expression Infection Signatures” (Frontiers in Immunology, 2019)
Read-outs that look alike come from different tables or passages of the source.

Columns and labels:
[1] = system: influenza A/Quebec/144147/09 (H1N1)pdm09 virus; format: in vivo, C57BL/6N mice
[2] = system: A(H1N1)pdm09 virus; format: cell-based, influenza virus
[3] = system: influenza A/Lyon/969/09 (H1N1)pdm09 virus; format: cell-based
[4] = system: MucilAir® human airway epithelium; format: cell-based
[5] = system: influenza A/Quebec/144147/09 (H1N1)pdm09 virus; format: in vivo, C57BL/6N mice; remark: listed apart in the source
[6] = system: MucilAir® human airway epithelia (HAE); test: LDH cytotoxicity in HAE; details: oseltamivir 1 μM, diltiazem 90 μM, combinations
[7] = system: A/Lyon/969/09 (H1N1)pdm09 virus; test: microbe, parasite or virus in culture; format: cell-based, influenza A(H1N1)pdm09 virus; details: Influenza A virus, H1N1, 48 h; pre-treatment/treatment in vitro; A549; […]; read-out: EC50
[8] = system: B/Massachusetts/2/2106; test: Antiviral efficacy in A549 cells, B strain; format: cell-based, influenza virus
[9] = system: A/Texas/126/2016 (H3N2); test: Antiviral efficacy in A549 cells, H3N2 strain; format: cell-based, influenza virus
[10] = […], oseltamivir 10 mg/kg/day, diltiazem 90 mg/kg/day
[11] = 24 h p.i., oseltamivir 0.1 µM, diltiazem 9 µM or both
[12] = 48 h p.i., oseltamivir 0.1 µM, diltiazem 9 µM or both
[13] = 72 h p.i., oseltamivir 0.1 µM, diltiazem 9 µM or both
[14] = 96 h p.i., oseltamivir 0.1 µM, diltiazem 9 µM or both
[15] = oseltamivir 1 μM, diltiazem 90 μM

COc1ccc([C@@H]2Sc3ccccc3N(CCN(C)C)C(=O)[C@@H]2OC(C)=O)cc1 [Diltiazem]
Hazard ratio (HR) for the saline group compared to treatment group (CI95) ([1]; […], diltiazem 45 mg/kg): 7.62 (1.49–38.96)
Mice rescued from death ([1]; […], half-dose diltiazem 45 mg/kg): 30%
Survival ([1]; […], mg/kg/day: oseltamivir 10, monensin 10, diltiazem 90, etilefrine 3): completely prevented mortality
Hazard ratio (HR) for the saline group compared to treatment group (CI95) [1, 10]: 2.85 (0.56–14.47)
Mice rescued from death [1, 10]: 20%
Weight loss ([1]; […], oseltamivir 10, monensin 10, diltiazem 90 mg/kg/day): reduced weight loss
Mean weight loss ([1]; mouse, in vivo): significant improvement
Effect of virus pre-incubation on final viral titers vs PBS-incubated controls ([2]; pre-incubation before infection): did not affect final viral titers
Viral titer, Dilution #2 ([2]; virus 10^5 TCID50/mL pre-incubated 1 h, diltiazem 9 µM, etilefrine 18 µM, oseltamivir 1 µM): 4.63 log TCID50/ml
Viral titer, Dilution #1 ([2]; virus 10^6 TCID50/mL pre-incubated 1 h, diltiazem 9 µM, etilefrine 18 µM, oseltamivir 1 µM): 5.63 log TCID50/ml
Mean relative Viral production ([2]; virus pre-incubated 1 h, relative to PBS control): 156.9 % of mock-treated
Apical viral titer log TCID50/ml (CI95) [3, 11]: 6.47 (5.03 – 7.90) log TCID50/ml
Apical viral titer log TCID50/ml (CI95) [3, 12]: 8.91 (8.67 – 9.16) log TCID50/ml
Apical viral titer log TCID50/ml (CI95) [3, 13]: 8.21 (7.28 – 9.14) log TCID50/ml
Apical viral titer log TCID50/ml (CI95) [3, 14]: 7.32 (6.43 – 8.22) log TCID50/ml
Apical viral titer log TCID50/ml (CI95) ([3]; 96 h p.i., oseltamivir 1 µM, diltiazem 90 µM or both): 7.37 (5.97 – 8.76) log TCID50/ml
Effect on viral replication vs untreated control ([3]; oseltamivir 0.1 μM, diltiazem 9 μM (CMAP) or both, from 5 h p.i., once daily 5 days): no significant advantage over the untreated control
Reduction in apical viral titers at 48 h p.i. compared to the untreated control [3, 15]: > 3 log
Virus on the basolateral medium [3, 15]: No virus was detected
Delay of the peak of viral production ([3]; oseltamivir 1 μM, diltiazem 90 μM (10-fold CMAP)): 24 h
Reduction in apical peak viral titers compared to the untreated control ([3]; oseltamivir 1 μM, diltiazem 90 μM or both, 48 h p.i. untreated vs. 72 h p.i. treated): > 2 log
Δ TEER (CI95) [4, 11]: 35.10 (10.96 – 59.23) Ohm/cm^2
Δ TEER (CI95) ([4]; 24 h p.i., oseltamivir 1 µM, diltiazem 90 µM or both): 86.13 (3.72 – 168.5) Ohm/cm^2
Δ TEER (CI95) [4, 12]: -48.31 (-180.1 – 83.47) Ohm/cm^2
Δ TEER (CI95) ([4]; 48 h p.i., oseltamivir 1 µM, diltiazem 90 µM or both): 120.1 (-85.77 – 326.00) Ohm/cm^2
Δ TEER (CI95) [4, 13]: -218.0 (255.6 – -180.4) Ohm/cm^2
Δ TEER (CI95) ([4]; 72 h p.i., oseltamivir 1 µM, diltiazem 90 µM or both): -115.5 (-308.5 – 77.52) Ohm/cm^2
Δ TEER (CI95) [4, 14]: -220.5 (-267.4 – -173.5) Ohm/cm^2
TEER during the time-course of infection ([4]; oseltamivir 1 μM, diltiazem 90 μM or both): partially buffered the TEER decrease
Clinical benefit in terms of survival vs saline (placebo) group ([5]; […], mg/kg/day: oseltamivir 10, monensin 10, diltiazem 90, etilefrine 3, lanatoside C 100, prednisolone 5, flucytosine 240, felbinac 5, timolol 50): significantly improved survival
Weight loss vs saline (placebo) group ([5]; […], oseltamivir 10, diltiazem 90, etilefrine 3 mg/kg/day): significantly improved
Reduction in lung viral titers (LVTs) on day 5 p.i. ([5]; mouse, in vivo): at least 1 log
Treatment-induced toxicity (LDH release) [6]: absence of treatment-induced toxicity
EC50 [7]: 0.84 nM
Relative Viral production ([8]; dose CMAP): 4.7 % of mock-treated
Viral titer ([8]; dose CMAP): 3.97 log TCID50/ml
Relative Viral production ([8]; dose CMAP/10): 10.0 % of mock-treated
Viral titer ([8]; dose CMAP/10): 4.3 log TCID50/ml
Relative Viral production ([9]; dose CMAP): 7.9 % of mock-treated
Viral titer ([9]; dose CMAP): 4.92 log TCID50/ml
Relative Viral production ([9]; dose CMAP/10): 12.75 % of mock-treated
Viral titer ([9]; dose CMAP/10): 5.13 log TCID50/ml
